Reference: ChEMBL document CHEMBL1135799, “Graphical model for estimating oral bioavailability of drugs in humans and other species from their Caco-2 permeability and in vitro liver enzyme metabolic stability rates” (J Med Chem, 2002)

How the values were obtained:
[1] = Metabolic stability observed at 30 min after administration in human liver microsomes; type: ADME, Microsome; details: read-out: R
[2] = Oral bioavailability in human; type: ADME, organism-based; details: in vivo
[3] = In vitro rate of absorption observed as Caco-2 permeability in humans; type: ADME, cell-based; details: human, read-out: Papp e-6

| Compound | remaining at 0.5 h [1] [%] | bioavailability [2] [%] | Papp [3] [×10⁻⁶ cm/s] |
| --- | --- | --- | --- |
| NC(=O)N1c2ccccc2C=Cc2ccccc21 [CARBAMAZEPINE] | 96 | 70 | 22.8 |
| COc1ccc2c(c1)c(CC(=O)O)c(C)n2C(=O)c1ccc(Cl)cc1 [INDOMETHACIN] | 95 | 98 | 20.4 |
| OC[C@@H](O)[C@@H](O)[C@H](O)[C@H](O)CO [MANNITOL] | 100 | 18 | 2 |
| COCCc1ccc(OCC(O)CNC(C)C)cc1 (centres undefined) [METOPROLOL] | 73 | 38 | 27 |
| CC(C)NCC(O)COc1cccc2ccccc12 (centres undefined) [PROPRANOLOL] | 29 | 26 | 41.9 |
| CC(C)(C)NC[C@H](O)COc1nsnc1N1CCOCC1 [TIMOLOL] | 71 | 50 | 12.8 |
| CC(=O)CC(c1ccccc1)c1c(O)c2ccccc2oc1=O (centres undefined) [WARFARIN] | – | – | 38.3 |
